Source: paper PMC10847966 (Nature chemical biology, 2023)

Tests used:
MthK [1] = biological target: MthK (Methanothermobacter thermautotrophicus, UniProt O27564, V91F); assay: stopped-flow Tl+ flux assay in liposomes; assay type: biochemical
MthK [2] = biological target: MthK (Methanothermobacter thermautotrophicus, UniProt O27564, A90L); assay: stopped-flow Tl+ flux assay in liposomes; assay type: biochemical
MthK [3] = biological target: MthK (Methanothermobacter thermautotrophicus, UniProt O27564, A88F); assay: single-particle cryo-EM structure; assay type: binding

CCCCC[N+](CCCCC)(CCCCC)CCCCC [TPeA]
IC50 (MthK [1]): 2.05 µM | IC50 (MthK [2]): 9.7 µM | single-particle cryo-EM structure (MthK [3]): Processing workflow for A88F-TPeA dataset, TPeA densities in the maps with C4 symmetry (mesh), TPeA molecule (stick)
